Tests used:
L1210 leukemia cell line = assay: Cytotoxicity to cancer cells, MTT assay; assay type: cell-based; details: 3 days, n=6
Protocol: The methotrexate (MTX) is served as the positive control group. Briefly, the cancer cells (5000-10000 cells/ml) is added together with the compounds to be tested into each well of 96-well plate. After culturing for 3 days, the attached cells are cultured in MTT (0.5 mg/ml) for one hour, followed by dissolving the formazan crystal with dimethyl sulfoxide (DMSO). The absorption at 550 nm wave length is measured by the enzyme linked immunosorbent assay (ELISA) reader. IC50 is the concentration of the tested compound for inhibiting 50% cell growth under the experimental conditions.

RAW 264.7 cells = assay: Inhibition of RANKL-induced osteoclast differentiation (TRAP staining); assay type: cell-based; details: 5 μM, RANKL 10 μg/ml, 5 days, n=5
C57BL/6J mice [1] = assay: The lipid-lowering effect in C57BL/6J mice (high-fat diet); assay type: in vivo; details: HFD, after 21 days
Protocol: (§1) 8-week C57BL/6J mice are divided into standard diet (STD) group and the high-fat diet (HFD) group. In the HFD group, the KMUP-1 HCl salt (1, 2.5 and 5 mg/kg), the simvastatin (5 mg/kg), the KMUP-1-Nicotinic acid complex (1 and 5 mg/kg), the KMUP-1-Simvastatinic acid complex (1 and 5 mg/kg), KMUP-1-Gemfibrozil complex (2.5 mg/kg), KMUP-1-Fibric acid complex (2.5 mg/kg), KMUP-1-γ-polyglutamic acid complex (2.5 mg/kg) and KMUP-1-Citric acid complex (2.5 mg/kg) are administered orally. After 21 days, the amounts (mg/dl) of the triglyceride (TG), the total cholesterol (tot.-C), the high density lipoprotein cholesterol (HDL-C), the low density lipoprotein cholesterol (LDL-C) and the serum glucose of six mice for each group are measured as shown in Tables 2 and 3.

[2] = system: U46619-induced platelet aggregation; assay: Antiplatelet aggregation activity (U46619-induced, turbidity, Lumi-aggregometer); assay type: cell-based; details: 20 μM, rabbit platelets, n=8
Protocol: 4. […] After centrifuging at […] for 10 mins, the supernatant is platelet-rich plasma (PRP). The platelet suspension is obtained from EDTA-anticoagulated PRP, and the platelet granules are finally suspended in the Tyrode's solution. […] The turbidity is measured at 37° C. by Lumi-aggregometer connected with two dual channel recorders as the aggregation.

C57BL/6J mice [3] = assay: The amount of the serum glucose and insulin in C57BL/6J mice (high-fat diet); assay type: in vivo; details: 1 mg/kg orally, HFD, after 21 days
Protocol: as §1

[4] = system: monocrotaline (MCT)-treated rats; assay: Pulmonary artery blood pressure in monocrotaline (MCT)-treated rats; assay type: in vivo, male Wistar rats; details: 2.5 mg/kg/day p.o.
Protocol: 5. the monocrotaline (MCT)-treated rats show the […] pulmonary aterial hypertension
Pulmonary aterial hypertension in MCT-treated rats is caused on day 21 after the intraperitoneal injection. Orally administered KMUP-1 HCl salt (2.5 mg/kg), simvastatin (2.5 mg/kg), KMUP-1-nicotinic acid complex (2.5 mg/kg), KMUP-1-Citric acid complex (2.5 mg/kg), KMUP-1-Simvastatinic acid complex (2.5 mg/kg) and KMUP-1-γ-Polyglutamic acid complex (2.5 mg/kg), or the inhalated KMUP-1-PGI2 (0.1 mM) every day may inhibit the male Wistar rats treated with MCT, which show the effect of decreasing the pulmonary artery blood pressure (PABP).

[5] = system: testosterone-induced mice; assay: Prostate hypertrophy (BPH) in testosterone-induced mice; assay type: in vivo; details: 2.5 mg/kg, testosterone 3 mg/kg/day for 4 weeks, day 28, n=6
Protocol: The testosterone (TS, 3 mg/kg/day) is administered for 4 weeks for inducing BPH in mice, which combines with KMUP-1 HCl salt (2.5 mg/kg), KMUP-1-Citric acid (2.5 mg/kg) and KMUP-1-Nicotinic acid (2.5 mg/kg), and the ratio of hypertrophy (g)/body weight (g) is measured at day 28 (n=6).

TGF-β = assay: Bleomycin-induced lung fibrosis in mice, TGF-β expression by EIA; assay type: in vivo; details: 2.5 mg/kg orally, bleomycin 60 mg/kg
Protocol: 6. KMUP-1 salts inhibit the lung fibrosis in mice induced by bleomycin (BM) mediated via transforming growth factor beta (TGF-β) expression in lung The increased amount of the synthetic collagen and the generation of the macrophage in alveolus may facilitate the formulation of TGF-β, and the expression of TGF-β is looked as a biomarker of the lung fibrosis. […] The state of the TGF-β expression in the irrigation solution is measured by the enzyme immunoassay (EIA).

H1N1 virus = assay type: cell-based; details: MDCK culture infected with H1N1 virus
[6] = system: STZ-induced diabetic rats; assay: Serum glucose and body weight in streptozosin (STZ)-induced diabetic rats; assay type: in vivo; details: after 21 days
Protocol: 2. The effect of KMUP-1 on decreasing the amount of the serum glucose in streptozosin (STZ)-induced diabetic rats
60 mg/kg of streptozosin is injected intravenously for inducing the STZ-induced rats, and the KMUP-1 HCl salt (0.5, 1.5, 2.5 and 5 mg/kg) and KMUP-1-Simvastatinic acid (5 mg/kg) are administered orally. After 21 days, the amount of the serum glucose (mg/dl), the amount of the serum insulin (mg/dl), the body weight (g) and the change of the body weight are measured.

[7] = system: STZ-induced diabetic rats; assay: Change of insulin and fasting blood glucose after administration, STZ-induced diabetic rats; assay type: in vivo
Protocol: Nateglinide, repaglinide or the placebo is administered on day 1 before one hour of the breakfast, and the KMUP-1/KMUP-1-Nateglinide or KMUP-1-Repaglinide are orally administered at 1, 2, 3, 4, 5 and 6 hrs respectively. The amount of the serum glucose (mg/dl), the amount of the serum insulin (mg/dl), the body weight (g) and the change of the body weight are measured.

SMILES: CN(Cc1cnc2nc(N)nc(N)c2n1)c1ccc(C(=O)N[C@@H](CCC(=O)O)C(=O)O)cc1 [MTX, methotrexate, reference compound]
- IC50 (L1210 leukemia cell line; Mus musculus, 72 h): 12 nM

SMILES: Cl.Cn1c(=O)c2c(ncn2CCN2CCN(c3ccccc3Cl)CC2)n(C)c1=O [KMUP-1 HCl salt, 7-[2-[4-(2-chlorobenzene)piperazinyl]ethyl]-1,3-dimethyl xanthine HCl]
- TRAP-Positive Cells (RAW 264.7 cells): 80 ± 6
- HDL-C (C57BL/6J mice [1]; 2.5 mg/kg orally): 103.55 ± 4.2 mg/dL
- LDL-C (C57BL/6J mice [1]; 2.5 mg/kg orally): 14.17 ± 1.4 mg/dL
- TG (C57BL/6J mice [1]; 2.5 mg/kg orally): 74.5 ± 5.1 mg/dL
- tot.-C (C57BL/6J mice [1]; 2.5 mg/kg orally): 133 ± 5.1 mg/dL
- HDL-C (C57BL/6J mice [1]; 5 mg/kg orally): 118.32 ± 5.7 mg/dL
- LDL-C (C57BL/6J mice [1]; 5 mg/kg orally): 14.2 ± 2.2 mg/dL
- TG (C57BL/6J mice [1]; 5 mg/kg orally): 72.67 ± 4.7 mg/dL
- tot.-C (C57BL/6J mice [1]; 5 mg/kg orally): 125.5 ± 9.8 mg/dL
- IC50 (L1210 leukemia cell line): 26 nM
- The ratio of the antiplatelet aggregation [2]: 89 ± 3.4 %
- The amount of serum glucose (C57BL/6J mice [3]): 120.4 ± 4.2 mg/dL
- PABP [4]: 13 ± 1.7 mmHg
- hypertrophy (g)/body weight (g) [5]: 0.21 ± 0.04
- Changing % of the lung TGF-β (TGF-β): 52 ± 5.2 %
- growth of the virus (in words) (H1N1 virus; in glucose solution): can inhibit the growth of the virus
- IC50 (H1N1 virus; n=6): 5.2 µg/mL
- The amount of the serum glucose ([6]; 0.5 mg/kg orally): 215.4 ± 19.6 mg/dL
- The amount of the serum glucose ([6]; 1.5 mg/kg orally): 215.4 ± 23.8 mg/dL
- The amount of the serum glucose ([6]; 2.5 mg/kg orally): 210.4 ± 15.7 mg/dL
- The amount of the serum glucose ([6]; 5 mg/kg orally): 200.2 ± 14.2 mg/dL
- The change of the fasting blood glucose after administration ([7]; 1 mg/kg, 1 hr): 3.7 ± 0.6 mg/dL
- The change of the insulin after administration ([7]; 1 mg/kg, 1 hr): 10.1 ± 1.8 U/mL
- The change of the fasting blood glucose after administration ([7]; 1 mg/kg, 2 hr): 2.3 ± 0.7 mg/dL
- The change of the insulin after administration ([7]; 1 mg/kg, 2 hr): 16.4 ± 2.2 U/mL
- The change of the insulin after administration ([7]; 1 mg/kg, 3 hr): 12.6 ± 2.4 U/mL
- The change of the insulin after administration ([7]; 1 mg/kg, 4 hr): 6.7 ± 2.4 U/mL
- The change of the fasting blood glucose after administration ([7]; 1 mg/kg, 6 hr): 0.1 ± 0.5 mg/dL
- The change of the insulin after administration ([7]; 1 mg/kg, 6 hr): 1.8 ± 0.7 U/mL
- The change of the fasting blood glucose after administration ([7]; 2 mg/kg, 1 hr): 4.3 ± 0.4 mg/dL
- The change of the insulin after administration ([7]; 2 mg/kg, 1 hr): 26.4 ± 1.3 U/mL
- The change of the fasting blood glucose after administration ([7]; 2 mg/kg, 2 hr): 2.5 ± 0.2 mg/dL
- The change of the insulin after administration ([7]; 2 mg/kg, 2 hr): 30.6 ± 4.6 U/mL
- The change of the insulin after administration ([7]; 2 mg/kg, 3 hr): 13.8 ± 3.6 U/mL
- The change of the insulin after administration ([7]; 2 mg/kg, 4 hr): 9.5 ± 1.7 U/mL
- The change of the fasting blood glucose after administration ([7]; 2 mg/kg, 6 hr): 0.3 ± 0.7 mg/dL
- The change of the insulin after administration ([7]; 2 mg/kg, 6 hr): 4.6 ± 0.8 U/mL
- The change of the fasting blood glucose after administration ([7]; 3 mg/kg, 1 hr): 5.2 ± 0.9 mg/dL
- The change of the insulin after administration ([7]; 3 mg/kg, 1 hr): 38.2 ± 3.8 U/mL
- The change of the fasting blood glucose after administration ([7]; 3 mg/kg, 2 hr): 1.7 ± 0.1 mg/dL
- The change of the insulin after administration ([7]; 3 mg/kg, 2 hr): 32.6 ± 6.4 U/mL
- The change of the insulin after administration ([7]; 3 mg/kg, 3 hr): 21.4 ± 2.6 U/mL
- The change of the insulin after administration ([7]; 3 mg/kg, 4 hr): 18.4 ± 2.4 U/mL
- The change of the fasting blood glucose after administration ([7]; 3 mg/kg, 6 hr): -0.1 ± 0.3 mg/dL
- The change of the insulin after administration ([7]; 3 mg/kg, 6 hr): 7.4 ± 3.6 U/mL
- The change of the fasting blood glucose after administration ([7]; 4 mg/kg, 1 hr): 5.7 ± 0.8 mg/dL
- The change of the insulin after administration ([7]; 4 mg/kg, 1 hr): 37.4 ± 3.6 U/mL
- The change of the fasting blood glucose after administration ([7]; 4 mg/kg, 2 hr): 1.5 ± 0.2 mg/dL
- The change of the insulin after administration ([7]; 4 mg/kg, 2 hr): 47.3 ± 2.3 U/mL
- The change of the insulin after administration ([7]; 4 mg/kg, 3 hr): 27.8 ± 2.8 U/mL
- The change of the insulin after administration ([7]; 4 mg/kg, 4 hr): 14.8 ± 3.7 U/mL
- The change of the fasting blood glucose after administration ([7]; 4 mg/kg, 6 hr): -0.3 ± 0.1 mg/dL
- The change of the insulin after administration ([7]; 4 mg/kg, 6 hr): 2.8 ± 0.5 U/mL

SMILES: CN(Cc1cnc2nc(N)nc(N)c2n1)c1ccc(C(=O)N[C@@H](CCC(=O)O)C(=O)O)cc1.Cn1c(=O)c2c(ncn2CCN2CCN(c3ccccc3Cl)CC2)n(C)c1=O [KMUP-1-MTX, KMUP-1-Methotrexate (MTX) Complex]
- IC50 (L1210 leukemia cell line): 20 nM

SMILES: Cn1c(=O)c2c(ncn2CCN2CCN(c3ccccc3Cl)CC2)n(C)c1=O.O=C(O)CC(O)(CC(=O)O)C(=O)O [KMUP-1-Citric acid, KMUP-1-Citric acid salt]
- HDL-C (C57BL/6J mice [1]; 2.5 mg/kg orally): 108.4 ± 1.3 mg/dL
- LDL-C (C57BL/6J mice [1]; 2.5 mg/kg orally): 16.4 ± 1.7 mg/dL
- TG (C57BL/6J mice [1]; 2.5 mg/kg orally): 83.2 ± 5.3 mg/dL
- tot.-C (C57BL/6J mice [1]; 2.5 mg/kg orally): 129.7 ± 1.6 mg/dL
- The ratio of the antiplatelet aggregation [2]: 78 ± 2.7 %
- PABP [4]: 16 ± 1.8 mmHg
- hypertrophy (g)/body weight (g) [5]: 0.23 ± 0.05

From patent US8470805B2, “Processes for preparing piperazinium salts of KMUP and use thereof” (Kaohsiung Medical University, priority 2009, dated 2013)
